A word on the IC50: it is the concentration that gives 50% inhibition. Lower therefore signals greater potency.

Experiment [1] concerns the target T1, Phosphatidylinositol 4-kinase, PI4K (Homo sapiens, UniProt Q9BTU6+Q8TCG2+Q9UBF8+P42356). Nature of the experiment: Inhibition of phosphatidylinositol 4-kinase at 100 ug/ml (weak inhibition). In kind it is protein assay.
Experiment [2] has as its target T1, Phosphatidylinositol 4-kinase, PI4K. Nature of the experiment: Inhibition of phosphatidylinositol 4-kinase. The format is protein assay.

In brackets after ≈: the same amount, converted by molar mass.

Consider `N=C(N)CCNC(=O)c1cn(C2O[C@H](CO)C(O)[C@H]2O)c2nc(N)nc(O)c12` (single isomer, unassigned), for which the IC50 result in experiment [1] is “weak inhibition”.
`N=C(N)CCNC(=O)c1c[nH]c2nc(N)nc(O)c12` [ECHIGUANINE A] had a half-inhibitory concentration (IC50) in experiment [2] of 0.03 µg/mL (≈ 0.114 µM).

For the origin of these results see ChEMBL document CHEMBL1129204, “Synthesis of ribofuranosyl glycosides of echiguanines A and B, inhibitors of phosphatidylinositol 4-kinase” (Bioorg Med Chem Lett, 1996).
